From patent US5246956A, “N-imidazolyl derivatives of substituted alkoxyimino tetrahydronaphthalenes and chromans having antithromboxane A2 activity” (Farmitalia Carlo Erba S.r.l., priority 1991, dated 1993)
Read-outs that look alike come from different tables or passages of the source. Values belong to the compound of their own block, whether it stands above or below them.

What was measured:
[1] = system: TxB2 synthesis; experiment: TxB2 synthesis inhibition in vitro, in whole blood of normal rats; assay type: cell-based, rat (Sprague Dawley)
Procedure: (§1) The effects of a representative group of compounds of the invention were evaluated, in comparison with known compounds, on TxB2 synthesis inhibition in vitro, in whole blood of normal rates, and on TxA2 antagonism in a binding assay in washed human platelets.
TxB2 synthesis inhibition
Blood was withdrawn from the abdominal aorta of normal Sprague Dawley rats (Charles River Italy) under light ether anaesthesia. The blood was immediately divided in portions of 0.5 ml and distributed in glass tubes each containing a concentration of the test compound, or of the reference compounds.
Samples were then allowed to clot for 1 hour at 37° C., centrifuged at 3000 rpm for 10 min, and serum collected and stored at -20° C. until assayed.

[2] = target: T1, TXA2 receptor (washed human platelets) (Homo sapiens, UniProt P21731); experiment: Displacement of [^3 H]-SQ 29,548 binding to washed human platelets (TxA2 antagonism)
T1 construct: endogenous in cells; host or cells: washed human platelets from healthy volunteers
T1 sequence (P21731 1-343): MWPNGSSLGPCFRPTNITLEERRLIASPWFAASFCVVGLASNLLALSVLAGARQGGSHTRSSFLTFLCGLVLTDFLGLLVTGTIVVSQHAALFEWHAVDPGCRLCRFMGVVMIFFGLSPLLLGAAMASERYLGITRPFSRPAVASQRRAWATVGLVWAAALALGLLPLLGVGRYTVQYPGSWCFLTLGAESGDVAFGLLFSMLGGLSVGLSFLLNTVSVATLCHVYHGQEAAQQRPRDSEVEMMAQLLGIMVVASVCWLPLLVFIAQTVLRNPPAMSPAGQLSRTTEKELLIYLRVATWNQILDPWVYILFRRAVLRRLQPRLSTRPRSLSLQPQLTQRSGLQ
Procedure: as §1
Displacement of [^3 H]--SO 29,548 binding to washed human platelets.
Blood from healthy volunteers of both sexes who had not taken any medication for at least 10 days was collected into one-tenth volume of acid citrate dextrose containing indomethacin (28 μM). Platelet rich plasma (PRP), obtained by centrifugation of the blood at 200 xg for 20 min. was washed twic (1000 xg for 10 min). The platelets are then resuspended in Tyrode-Hepes buffer (pH 7.4) to a final concentration of […] and incubated for 0-60 min at 25° with [^3 H]--SQ 29,548 (5 nM). For displacement experiments various concentrations (10^-9 -10^-4 M) of competing ligands were added and incubated for 30 min at 25° C. […] After the incubation, 4 ml of ice-cold TRIS-HC1 buffer (10 mM, pH 7.4) was added to each tube and the reaction mixture was immediately filtered by suction through a Whatman GF/C glass filter disc which was washed 2 times with ice-cold TRIS-CH1 (4 ml) and counted for radioactivity by a Packard β-counter.
The binding data were analysed by computerized non-linear curve fitting using the Ligand program and expressed as ID50.

[3] = Rattus norvegicus, Table 2, whole blood of normal rats, 1 hour at 37° C., read-out: In vitro effect on TxB2 synthesis in normal rats, IC50 (whole blood)
[4] = Table 3, rat whole blood, read-out: TxB2 synthesis IC50

Structure (SMILES): CC(=O)Oc1ccccc1C(=O)O [ASA, acetylsalicilic acid]
IC50 ([1]; Rattus norvegicus, 1 h, read-out: In vitro effect on TxB2 synthesis in normal rats, IC50 (whole blood)): 31000 nM

Structure (SMILES): O=C(O)COc1ccc(CCNS(=O)(=O)c2ccccc2)cc1 [BM 13177]
TxB2 synthesis IC50 ([1]; Table 3, rat whole blood): inactive

Structure (SMILES): O=C(O)Cc1ccc(CCNS(=O)(=O)c2ccc(Cl)cc2)cc1 [BM 13505]
TxB2 synthesis IC50 ([1]; Table 3, rat whole blood): inactive

IC50 ([2]; Table 1, washed human platelets, 30 min at 25° C., read-out: ^3 H SQ 29548 binding displacement (washed human platelet) IC50): 33 nM
TxA2 antagonism ([2]; platelets, in words): patent TxA2 antagonist
Structure (SMILES): O=C(O)CCCCCO/N=C1/c2ccccc2OC(c2ccccc2)C1n1ccnc1 (racemic) [FCE 27016, (+-)-(Z)-6-[[2-phenyl-3-(1H-imidazol-1-yl)-2,3-dihydro-4H-benzopyranylidene]aminoxy]hexanoic acid]
affinity for the receptor compared with BM 13505 and BM 13177 ([2]; washed human platelets, in words): greater than those of compounds BM 13505 and BM 13177

Structure (SMILES): CC1Oc2ccccc2/C(=N/OCCCCC(=O)O)C1n1ccnc1 (stereo not shown) [FCE 26365, 5-[[2-methyl-3-(1H-imidazol-1-yl)-2,3-dihydro-4H-1-benzopyranylidene]aminoxy]pentanoic acid]
IC50 [1, 3]: 27 nM
inhibition of platelet TxA2 synthase ([1]; in words): potent inhibitor of platelet TxA2 synthase

^3 H-SQ 29548 binding displacement IC50 ([2]; Table 3, washed human platelets): inactive
Structure (SMILES): O=C(O)c1ccc(OCCn2ccnc2)cc1 [Dazoxiben]
IC50 [1, 3]: 1200 nM
IC50 [1, 4]: 1200 nM

IC50 ([2]; Table 3, washed human platelets, read-out: ^3 H-SQ 29548 binding displacement IC50): 100 nM
Structure (SMILES): COc1ccc2c(c1)/C(=N/OCCCCC(=O)O)C(n1ccnc1)C(c1ccc(OC)c(OC)c1)O2 (racemic) [FCE 26603, (+-)-(Z)-5-[[2-(3,4-dimethoxyphenyl)-3-(1H-imidazol-1-yl)-2,3-dihydro-6-methoxy-4H-1-benzopyranylidene]aminoxy]pentanoic acid]
IC50 [1, 4]: 200 nM
